Experiments:
[1] = tested on: Slc: ddY mice; assay: Novel object recognition test with mice (mORT); format: in vivo; conditions: 0.3 mg/kg, 1.0 mg/kg or 3 mg/kg
Experimental: Evaluation of Cognitive Function with Mice in Novel Object Recognition Test (Hereinafter, Referred to as “mORT”)
Slc: ddY mice (25 g to 30 g, male, Japan SLC) can be used in the novel object recognition test wherein the interval between the 1st trial (training) and the 2nd trial (test) correlates with the memory loss for the objects used in the 1st trial, and a significant memory-loss is observed when the 2nd trial is performed 24 hours after the 1st trial. According to the test mechanism, the present compounds were administered prior to the 1st trial, and the enhancement effect on memory in the 2nd trial was evaluated.

[2] = target: T1, human α7 nAChR (Homo sapiens, UniProt P36544); assay: Evaluation of PAM activity with human α7 nACh receptor stably expressing cells (aequorin luminescence, FDSS7000); format: cell-based; conditions: ACh at EC20; for α7PAM (%) @ 10 μmol/L: test compound 10 μmol/L, ratio of RLU (Max-Min) of test-compound wells to control wells, human α7 nAChR expressing GH4C1 cells
T1 construct: expressed in transfected cells; host or cells: GH4C1 cells (rat pituitary, ATCC CCL-82.2)
Source text: Evaluation of PAM Activity with Human α7 nACh Receptor Stably Expressing Cells
(1) Human α7 nAChR stably expressing cells
Human α7 nAChR stably expressing cells were generated and cultured. In detail, GH4C1 cells derived from rat pituitary (cat#CCL-82.2, ATCC, USA) were used as a host cell. PcDNA3.1Zeo vector containing a nucleotide sequence encoding a protein GenBank BAC81731 and pcDNA3.1 vector containing human α7 nAChR gene (cat#V790-20, invitrogen, Carlsbad, Calif., USA) were transfected to the cells to give aequorins and human α7 nAChR stably expressing cells respectively. The aequorins and human α7 nAChR stably expressing cells were screened with Zeocin (cat#R25001, invitrogen, Carlsbad, Calif., USA) and Geneticin (cat#10131-027, invitrogen, Carlsbad, Calif., USA) respectively.
The cells were cultured in F-10 Nutrient Mixture (Ham) medium (cat#11550-043, invitrogen, Carlsbad, Calif., USA) containing 2.5% fetal bovine serum (cat#2917354, ICN Biomedicals, Inc, USA), 15% inactivated horse serum (cat#26050-088, invitrogen, Carlsbad, Calif., USA), 1 μg/mL Geneticin, and 5 μg/mL Puromycin (cat#14861-84, invitrogen, Carlsbad, Calif., USA), in a Collagen Type 1-coated dish (cat#4030-010, iwaki, Tokyo, Japan). During the culture, the medium was replaced with fresh medium in every 2 to 3 days, and the cells were treated with TrypLE Express (cat#45604-021, invitrogen, Carlsbad, Calif., USA) to collect them in every 7 days. Thus, the cells were subcultured.
7 Days after subculturing, the cells were treated with TrypLE Express to collect them when they were about 80% confluent. The cells were suspended in a reaction medium containing Hanks (cat#14065-056, invitrogen, Carlsbad, Calif., USA)/20 mmol/L Hepes (cat#15630-080, invitrogen, Carlsbad, Calif., USA), Buffer (pH 7.4), F-10 Nutrient Mixture (Ham), and 0.1 mg/mL Geneticin, and the suspension was seeded in a 384-well plate (cat#781090, Greiner, Germany) at 20000 cells/25 μL per well.
On the next day after seeding, Viviren (cat#E649X, Promega, Madison, Wis., USA) was added to the medium so that the final concentration could be 4 μmol/L (15 μL/well). The plates were centrifuged and then placed in the dark for 4 hours at room temperature.
(2) Preparation of the Test Samples
Each of the test compounds was dissolved in DMSO to prepare each test sample at a concentration of 1000-fold the final concentration. To the solution was added Hanks/20 mM HEPES/0.2% BSA (cat#A3803, Sigma, St. Louis, Mo., USA), and the concentration was adjusted to 6-fold the final concentration.
(3) Evaluation of PAM Activity
FDSS7000 (Hamamatsu Photonics) was used to detect the luminescence signal evoked by α7 nAChR stimulation. The cells and a luminescent substrate were put on a plate, and the test sample was added thereto. […] After the addition of ACh, the luminescence signal (the central wavelength: 465 nm) was measured for 138 seconds to calculate RLU (Max-Min). The ratio of the RLU (Max-Min) of the test-compound-containing wells to that of the control wells was defined as PAM activity.

T1 sequence (P36544 23-502): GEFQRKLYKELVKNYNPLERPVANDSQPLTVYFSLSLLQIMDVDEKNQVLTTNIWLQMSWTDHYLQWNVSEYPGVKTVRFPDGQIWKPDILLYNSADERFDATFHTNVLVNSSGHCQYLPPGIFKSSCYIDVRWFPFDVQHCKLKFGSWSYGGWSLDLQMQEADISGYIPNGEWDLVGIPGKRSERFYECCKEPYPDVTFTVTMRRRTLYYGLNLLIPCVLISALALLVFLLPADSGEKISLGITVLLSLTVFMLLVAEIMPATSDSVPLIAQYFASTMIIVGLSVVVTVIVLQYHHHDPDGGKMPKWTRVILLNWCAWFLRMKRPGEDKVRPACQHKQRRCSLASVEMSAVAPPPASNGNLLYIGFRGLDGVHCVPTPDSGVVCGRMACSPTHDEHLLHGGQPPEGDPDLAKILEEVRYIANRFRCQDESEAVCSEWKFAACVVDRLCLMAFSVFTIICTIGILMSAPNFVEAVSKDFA

SMILES	efficacy at higher doses [1]	α7PAM (%) @ 10 μmol/L [2]	PAM activity for α7 nAChR (in words) ([2]; ratio of RLU (Max-Min) of test wells to control wells)
CO[C@H]1CC[C@H](NC(=O)N2CCC(n3ncc4cc(C)ccc43)CC2)CC1 [Example 1, N-(trans-4-methoxycyclohexyl)-4-(5-methyl-1H-indazol-1-yl)piperidine-1-carboxamide]	the efficacy did not decrease	1209%	
CO[C@H]1CC[C@H](NC(=O)N2CCC(n3ncc4cc(C5CC5)ccc43)CC2)CC1 [Example 74, 4-(5-cyclopropyl-1H-indazol-1-yl)-N-(trans-4-methoxycyclohexyl)piperidine-1-carboxamide]	the efficacy did not decrease	1226%	
CCc1ccc2c(cnn2C2CCN(C(=O)N[C@H]3CC[C@H](OC)CC3)CC2)c1 [Example 16, 4-(5-ethyl-1H-indazol-1-yl)-N-(trans-4-methoxycyclohexyl)piperidine-1-carboxamide]		1764%	
COCC1CCC(NC(=O)N2CCC(n3ncc4cc(C)ccc43)CC2)CC1 (stereo not shown) [Example 220]			stronger PAM activity than others
CO[C@H]1CC[C@H](NC(=O)N2CCC(n3ncc4cc(-c5ccc(F)cc5)ccc43)CC2)CC1 [Example 155]		210%	
COCCCc1ccc2c(cnn2C2CCN(C(=O)N[C@H]3CC[C@H](OC)CC3)CC2)c1 [Example 32]		430%	
CCc1ccc2c(cnn2C2CCN(C(=O)NC3CCOCC3)CC2)c1OC [Example 275, 4-(5-ethyl-4-methoxy-1H-indazol-1-yl)-N-(tetrahydro-2H-pyran-4-yl)piperidine-1-carboxamide]		1093%	
CCc1ccc2c(cnn2C2CCN(C(=O)N[C@H]3CC[C@H](OC)CC3)CC2)c1OC [Example 255, 4-(5-ethyl-4-methoxy-1H-indazol-1-yl)-N-(trans-4-methoxycyclohexyl)piperidine-1-carboxamide]		1096%	

— US9309221B2, “1-substituted indazole derivative” (Dainippon Sumitomo Pharma Co., Ltd., priority 2012, dated 2016)
